Experiment: Flowable powder formation by freeze-drying (lyophilization), Example 1
Type: physicochemical
Procedure: The powder former (amount based on 1:1, 1:2 or 1:4 molar Δ^9-THC:powder former ratio) was dissolved in H2O (2 mL) and, if needed, dioxane (2 mL) was added to form a solution. The powder former solution was added to the Δ^9-THC solution in the round bottom flask. The round bottom flask was then submerged in a dry ice/acetone bath or liquid nitrogen to freeze the solution while continuously rotating the flask by hand to maximize surface area and form an even, thin layer around the flask. Once frozen, the round bottom flask was attached to a LabConco lyophilizer with an Edwards RV8 vacuum pump pre-equilibrated at ^˜−50° C. Samples were left overnight (18 hrs) and removed the next day.
Δ^9-THC and several powder formers were lyophilized using the described procedure to determine if a flowable powder would result.

SMILES: CCCCCc1cc(O)c2c(c1)OC(C)(C)[C@@H]1CCC(C)=C[C@@H]21 [Δ^9-THC, (−)-trans-Δ^9-tetrahydrocannabinol]
- Result of lyophilizing without a powder former (from dioxane alone): gel
- Result of lyophilizing without a powder former (from dioxane/water (~75/25 by volume)): tacky gel

Reference: patent publication US12090137B2, “Solid Δ9-tetrahydrocannabinol (Δ9-THC) compositions” (CANNA-C[…], priority 2020, dated 2024)
